Measured values as given in the supplement of paper PMC10307832.

Columns and labels:
Test in all cases: relative viability (nuclei count vs DMSO), 5 days (fraction); higher = more cells survive
[1] = compound: C/C(=N\NC(=S)N1CCC1)/C2=CC=CC=N2 + COc1cccc2cc(-c3nc([C@H]4CC[C@H](C(=O)O)CC4)n4ncnc(N)c34)[nH]c12 [OSI-027] (partner 0.5 µM)
Summary of the method: (§1)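 Relative viability equals treated-well nuclei counts divided by vehicle-well nuclei counts. Counts came from 4× images of lung cancer cell lines grown in 1536-well plates for 5 days after pin-tool dosing on the day after seeding. Dosing used one drug alone or a fixed anchor-drug dose plus five library-drug doses (not always all listed) in √10 steps, and values are medians of duplicate plates.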

[2] = compound: C/C(=N\NC(=S)N1CCC1)/C2=CC=CC=N2 + COc1cc2c(Oc3ccc(NC(=O)C4(C(=O)Nc5ccc(F)cc5)CC4)cc3F)ccnc2cc1OCCCN1CCOCC1 [Foretinib] (partner 0.25 µM)
Summary of the method: as §1

[3] = compound: C/C(=N\NC(=S)N1CCC1)/C2=CC=CC=N2 + CC(=O)c1c(C)c2cnc(Nc3ccc(N4CCNCC4)cn3)nc2n(C2CCCC2)c1=O [Palbociclib] (partner 0.5 µM)
Summary of the method: as §1

[4] = compound: C/C(=N\NC(=S)N1CCC1)/C2=CC=CC=N2
Summary of the method: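 Viability is treated-well nuclei as a fraction of vehicle-well nuclei, reported as the median across plates. Before counting, lung cancer cell lines were kept overnight at 37 °C in 1536-well plates, pinned with five √10-spaced library-drug doses on vehicle-anchored plates, and left 5 days without medium change, then fixed, permeabilised and Hoechst-stained in one step, imaged at 4× and counted by MetaXpress. A plate passed only if control CV was below 25% and at least one doubling occurred.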

Row | Cell Line | relative viability ([1]; first compound 0.05 µM) | relative viability ([1]; first compound 0.1581 µM) | relative viability ([1]; first compound 0.5 µM) | relative viability ([1]; first compound 1.581 µM) | relative viability ([1]; first compound 5 µM) | relative viability ([2]; first compound 0.05 µM) | relative viability ([2]; first compound 0.1581 µM) | relative viability ([2]; first compound 0.5 µM) | relative viability ([2]; first compound 1.581 µM) | relative viability ([2]; first compound 5 µM) | relative viability ([3]; first compound 0.05 µM) | relative viability ([3]; first compound 0.1581 µM) | relative viability ([3]; first compound 0.5 µM) | relative viability ([3]; first compound 1.581 µM) | relative viability ([3]; first compound 5 µM) | relative viability ([4]; 0.05 µM) | relative viability ([4]; 0.1581 µM) | relative viability ([4]; 0.5 µM) | relative viability ([4]; 1.581 µM) | relative viability ([4]; 5 µM)
1 | NCI-H358 | 0.0802 | 0.0946 | 0.0796 | 0.0601 | 0.0821 | 0.0918 | 0.107 | 0.0747 | 0.0879 | 0.107 | 0.0943 | 0.103 | 0.106 | 0.07 | 0.0834 | 0.132 | 0.125 | 0.143 | 0.119 | 0.114
2 | NCI-H441 | 0.181 | 0.173 | 0.16 | 0.143 | 0.168 | 0.314 | 0.236 | 0.238 | 0.174 | 0.167 | 0.13 | 0.112 | 0.124 | 0.0967 | 0.105 | 0.233 | 0.175 | 0.185 | 0.145 | 0.123
3 | NCI-H460 | 0.0284 | 0.0249 | 0.0234 | 0.0201 | 0.0147 | 0.1 | 0.06 | 0.0602 | 0.0533 | 0.0171 | 0.018 | 0.0146 | 0.0188 | 0.0169 | 0.0139 | 0.0678 | 0.0619 | 0.0798 | 0.0529 | 0.0177
4 | NCI-H520 | 0.153 | 0.192 | 0.158 | 0.169 | 0.242 | 0.153 | 0.162 | 0.159 | 0.17 | 0.184 | 0.119 | 0.139 | 0.121 | 0.114 | 0.151 | 0.164 | 0.17 | 0.141 | 0.16 | 0.172
5 | NCI-H647 | 0.0818 | 0.107 | 0.109 | 0.117 | 0.0913 | 0.128 | 0.0812 | 0.172 | 0.132 | 0.105 | 0.0551 | 0.0636 | 0.0877 | 0.0726 | 0.0666 | 0.114 | 0.116 | 0.136 | 0.115 | 0.0991
6 | NCI-H650 | 0.162 | 0.228 | 0.194 | 0.211 | 0.198 | 0.222 | 0.238 | 0.234 | 0.242 | 0.194 | 0.143 | 0.197 | 0.146 | 0.144 | 0.128 | 0.22 | 0.232 | 0.222 | 0.196 | 0.175
7 | NCI-H661 | 0.243 | 0.208 | 0.169 | 0.188 | 0.19 | 0.294 | 0.307 | 0.244 | 0.264 | 0.24 | 0.284 | 0.252 | 0.251 | 0.231 | 0.223 | 0.288 | 0.32 | 0.317 | 0.255 | 0.262
